Data as given in US20230045421A1 (priority 2018, published 2023).
Like-named read-outs stand apart in the source and are kept apart here.

Tested on: HBV rcDNA
Assay: HepDE19 assay with bDNA quantitation of HBV rcDNA
Type: cell-based, hepatitis B virus
Conditions: inhibition of formation of rcDNA, read-out: DE-19bDNA EC50
In short: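 Compounds, top concentration 25 μM in 8-point duplicate series, were applied to Tet-free HepDE19 cultures for 7 days. Branched-DNA quantitation of HBV rcDNA against untreated wells gave EC50 and EC90 by 4-parameter fit. Viability (CC50) came from ATP luminescence on parallel plates incubated 4 days.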

[1] = Hepatitis B virus, HepDE19, HepDE19 assay

Row | SMILES | EC50 (HepDE19 assay) [nM] | EC50 [1] [nM]
1 | CC(c1c[nH]c(=O)c2ccccc12)N(CCCCO)C(=O)Nc1ccc(F)c(Cl)c1 (single isomer, unassigned) [Compound 150, 3-(3-Chloro-4-fluorophenyl)-1-(4-hydroxybutyl)-1-(1-(1-oxo-1,2-dihydroisoquinolin-4-yl)ethyl)urea] | 10 | –
2 | CCN(C(=O)Nc1ccc(F)c(Cl)c1)C(C)c1c[nH]c(=O)c2cnccc12 (single isomer, unassigned) [Compound 151, 3-(3-Chloro-4-fluorophenyl)-1-ethyl-1-(1-(1-oxo-1,2-dihydro-2,7-naphthyridin-4-yl)ethyl)urea] | 2000 | –
3 | CCN(C(=O)Nc1ccc(F)c(Cl)c1)C(C)c1c[nH]c(=O)c2cnccc12 (single isomer, unassigned) [Compound 152, 3-(3-Chloro-4-fluorophenyl)-1-ethyl-1-(1-(1-oxo-1,2-dihydro-2,7-naphthyridin-4-yl)ethyl)urea] | 150 | –
4 | CC(c1c[nH]c(=O)c2ccccc12)N(C[C@H]1CCCO1)C(=O)Nc1ccc(F)c(Cl)c1 (single isomer, unassigned) [Compound 155] | 7700 | –
5 | CC(c1c[nH]c(=O)c2ccccc12)N(C[C@H]1CCCO1)C(=O)Nc1ccc(F)c(Cl)c1 (single isomer, unassigned) [Compound 156] | 170 | –
6 | CC(c1c[nH]c(=O)c2ccccc12)N(C[C@@H]1CCCO1)C(=O)Nc1ccc(F)c(Cl)c1 (single isomer, unassigned) [Compound 160] | 23000 | –
7 | CC(c1c[nH]c(=O)c2ccccc12)N(C[C@@H]1CCCO1)C(=O)Nc1ccc(F)c(Cl)c1 (single isomer, unassigned) [Compound 161] | 150 | –
8 | CC(c1c[nH]c(=O)c2ccccc12)N(CCNCC(F)(F)F)C(=O)Nc1ccc(F)c(Cl)c1 (single isomer, unassigned) [Compound 162, 3-(3-Chloro-4-fluorophenyl)-1-(1-(1-oxo-1,2-dihydroisoquinolin-4-yl)ethyl)-1-(2-((2,2,2-trifluoroethyl)amino)ethyl)urea] | 580 | –
9 | CC(c1c[nH]c(=O)c2ccccc12)N(CCNCC(F)(F)F)C(=O)Nc1ccc(F)c(Cl)c1 (single isomer, unassigned) [Compound 163, 3-(3-Chloro-4-fluorophenyl)-1-(1-(1-oxo-1,2-dihydroisoquinolin-4-yl)ethyl)-1-(2-((2,2,2-trifluoroethyl)amino)ethyl)urea] | 5300 | –
10 | CC(c1c[nH]c(=O)c2ccccc12)N(CCCN)C(=O)Nc1ccc(F)c(Cl)c1 (single isomer, unassigned) [Compound 164, 1-(3-Aminopropyl)-3-(3-chloro-4-fluorophenyl)-1-(1-(1-oxo-1,2-dihydroisoquinolin-4-yl)ethyl)urea] | – | 12000
11 | CC(c1c[nH]c(=O)c2c(Cl)cccc12)N(C)C(=O)Nc1ccc(F)c(Cl)c1 (single isomer, unassigned) [Compound 167, 1-(1-(8-Chloro-1-oxo-1,2-dihydroisoquinolin-4-yl)ethyl)-3-(3-chloro-4-fluorophenyl)-1-methylurea] | 2400 | –
12 | CC(c1c[nH]c(=O)c2c(Cl)cccc12)N(C)C(=O)Nc1ccc(F)c(Cl)c1 (single isomer, unassigned) [Compound 168, 1-(1-(8-Chloro-1-oxo-1,2-dihydroisoquinolin-4-yl)ethyl)-3-(3-chloro-4-fluorophenyl)-1-methylurea] | 70 | –
13 | CC(c1c[nH]c(=O)c2ccc(F)cc12)N(C)C(=O)Nc1ccc(F)c(Cl)c1 (single isomer, unassigned) [Compound 169, 3-(3-Chloro-4-fluorophenyl)-1-(1-(6-fluoro-1-oxo-1,2-dihydroisoquinolin-4-yl)ethyl)-1-methylurea] | 2100 | –
14 | CC(c1c[nH]c(=O)c2ccc(F)cc12)N(C)C(=O)Nc1ccc(F)c(Cl)c1 (single isomer, unassigned) [Compound 170, 3-(3-Chloro-4-fluorophenyl)-1-(1-(6-fluoro-1-oxo-1,2-dihydroisoquinolin-4-yl)ethyl)-1-methylurea] | 30 | –
15 | CC(c1c[nH]c(=O)c2ccc(Cl)cc12)N(C)C(=O)Nc1ccc(F)c(Cl)c1 (single isomer, unassigned) [Compound 171, 1-(1-(6-Chloro-1-oxo-1,2-dihydroisoquinolin-4-yl)ethyl)-3-(3-chloro-4-fluorophenyl)-1-methylurea] | 5400 | –
16 | CC(c1c[nH]c(=O)c2ccc(Cl)cc12)N(C)C(=O)Nc1ccc(F)c(Cl)c1 (single isomer, unassigned) [Compound 172, 1-(1-(6-Chloro-1-oxo-1,2-dihydroisoquinolin-4-yl)ethyl)-3-(3-chloro-4-fluorophenyl)-1-methylurea] | 120 | –

Row | SMILES | EC50 (HepDE19 assay) [nM] | EC50 [1] [nM]
17 | COc1ccc2c(C(C)N(C)C(=O)Nc3ccc(F)c(Cl)c3)c[nH]c(=O)c2c1 (single isomer, unassigned) [Compound 177, 3-(3-Chloro-4-fluorophenyl)-1-(1-(7-methoxy-1-oxo-1,2-dihydroisoquinolin-4-yl)ethyl)-1-methylurea] | 2200 | –
18 | COc1ccc2c(C(C)N(C)C(=O)Nc3ccc(F)c(Cl)c3)c[nH]c(=O)c2c1 (single isomer, unassigned) [Compound 178, 3-(3-Chloro-4-fluorophenyl)-1-(1-(7-methoxy-1-oxo-1,2-dihydroisoquinolin-4-yl)ethyl)-1-methylurea] | 170 | –
19 | COc1ccc2c(=O)[nH]cc(C(C)N(C)C(=O)Nc3ccc(F)c(Cl)c3)c2c1 (single isomer, unassigned) [Compound 179, 3-(3-Chloro-4-fluorophenyl)-1-(1-(6-methoxy-1-oxo-1,2-dihydroisoquinolin-4-yl)ethyl)-1-methylurea] | 7300 | –
20 | COc1ccc2c(=O)[nH]cc(C(C)N(C)C(=O)Nc3ccc(F)c(Cl)c3)c2c1 (single isomer, unassigned) [Compound 180, 3-(3-Chloro-4-fluorophenyl)-1-(1-(6-methoxy-1-oxo-1,2-dihydroisoquinolin-4-yl)ethyl)-1-methylurea] | 1400 | –
21 | CC(c1cn(C)c(=O)c2ccccc12)N(C)C(=O)Nc1ccc(F)c(Cl)c1 (single isomer, unassigned) [Compound 181, 3-(3-Chloro-4-fluorophenyl)-1-methyl-1-(1-(2-methyl-1-oxo-1,2-dihydroisoquinolin-4-yl)ethyl)urea] | 1800 | –
22 | CC(c1cn(C)c(=O)c2ccccc12)N(C)C(=O)Nc1ccc(F)c(Cl)c1 (single isomer, unassigned) [Compound 182, 3-(3-Chloro-4-fluorophenyl)-1-methyl-1-(1-(2-methyl-1-oxo-1,2-dihydroisoquinolin-4-yl)ethyl)urea] | 30 | –
23 | CCn1cc(C(C)N(C)C(=O)Nc2ccc(F)c(Cl)c2)c2ccccc2c1=O (single isomer, unassigned) [Compound 183, 3-(3-Chloro-4-fluorophenyl)-1-(1-(2-ethyl-1-oxo-1,2-dihydroisoquinolin-4-yl)ethyl)-1-methylurea] | 18000 | –
24 | CCn1cc(C(C)N(C)C(=O)Nc2ccc(F)c(Cl)c2)c2ccccc2c1=O (single isomer, unassigned) [Compound 184, 3-(3-Chloro-4-fluorophenyl)-1-(1-(2-ethyl-1-oxo-1,2-dihydroisoquinolin-4-yl)ethyl)-1-methylurea] | 90 | –
25 | CCCn1cc(C(C)N(C)C(=O)Nc2ccc(F)c(Cl)c2)c2ccccc2c1=O (single isomer, unassigned) [Compound 185, 3-(3-Chloro-4-fluorophenyl)-1-methyl-1-(1-(1-oxo-2-propyl-1,2-dihydroisoquinolin-4-yl)ethyl)urea] | 340 | –
26 | CCCn1cc(C(C)N(C)C(=O)Nc2ccc(F)c(Cl)c2)c2ccccc2c1=O (single isomer, unassigned) [Compound 186, 3-(3-Chloro-4-fluorophenyl)-1-methyl-1-(1-(1-oxo-2-propyl-1,2-dihydroisoquinolin-4-yl)ethyl)urea] | 8400 | –
27 | CC(c1cn(C(C)C)c(=O)c2ccccc12)N(C)C(=O)Nc1ccc(F)c(Cl)c1 (single isomer, unassigned) [Compound 187, 3-(3-Chloro-4-fluorophenyl)-1-(1-(2-isopropyl-1-oxo-1,2-dihydroisoquinolin-4-yl)ethyl)-1-methylurea] | 140 | –
28 | CC(c1cn(C(C)C)c(=O)c2ccccc12)N(C)C(=O)Nc1ccc(F)c(Cl)c1 (single isomer, unassigned) [Compound 188, 3-(3-Chloro-4-fluorophenyl)-1-(1-(2-isopropyl-1-oxo-1,2-dihydroisoquinolin-4-yl)ethyl)-1-methylurea] | 1800 | –
29 | CC(c1cn(C2CC2)c(=O)c2ccccc12)N(C)C(=O)Nc1ccc(F)c(Cl)c1 (single isomer, unassigned) [Compound 189, 3-(3-Chloro-4-fluorophenyl)-1-(1-(2-cyclopropyl-1-oxo-1,2-dihydroisoquinolin-4-yl)ethyl)-1-methylurea] | 2400 | –
30 | CC(c1cn(C2CC2)c(=O)c2ccccc12)N(C)C(=O)Nc1ccc(F)c(Cl)c1 (single isomer, unassigned) [Compound 190, 3-(3-Chloro-4-fluorophenyl)-1-(1-(2-cyclopropyl-1-oxo-1,2-dihydroisoquinolin-4-yl)ethyl)-1-methylurea] | 170 | –
31 | COCCn1cc(C(C)N(C)C(=O)Nc2ccc(F)c(Cl)c2)c2ccccc2c1=O (single isomer, unassigned) [Compound 191, 3-(3-Chloro-4-fluorophenyl)-1-(1-(2-(2-methoxyethyl)-1-oxo-1,2-dihydroisoquinolin-4-yl)ethyl)-1-methylurea] | – | 360
32 | CC(c1c[nH]c(=O)c2ccccc12)N(CC1CCCC1)C(=O)Nc1ccc(F)c(Cl)c1 (single isomer, unassigned) [Compound 192, 3-(3-Chloro-4-fluorophenyl)-1-(cyclopentylmethyl)-1-(1-(1-oxo-1,2-dihydroisoquinolin-4-yl)ethyl)urea] | 420 | –
